Measurements published in ChEMBL document CHEMBL5625206, “Design, synthesis, and evaluation of novel pleuromutilin aryl acrylate derivatives as promising broad-spectrum antibiotics especially for combatting multi-drug resistant gram-negative bacteria” (Eur J Med Chem, 2023).
In brackets after ≈: the same amount, converted by molar mass. Activity calls are given as the source filed them. No cut-off for these calls is given here.

Columns and labels:
[1] = tested on: Staphylococcus epidermidis; test: Antibacterial activity against Staphylococcus epidermidis ATCC 12228 assessed as bacterial growth inhibition incubated for 24 hrs by CLSI based broth microdilution method; type: functional
Staphylococcus aureus [2] = test: Antibacterial activity against Staphylococcus aureus ATCC 25923 assessed as bacterial growth inhibition incubated for 24 hrs by CLSI based broth microdilution method; type: functional
Staphylococcus aureus [3] = test: Antibacterial activity against Staphylococcus aureus ATCC 29213 assessed as bacterial growth inhibition incubated for 24 hrs by CLSI based broth microdilution method; type: functional
Staphylococcus aureus [4] = test: Antibacterial activity against methicillin-resistant Staphylococcus aureus ATCC 33591 assessed as bacterial growth inhibition incubated for 24 hrs by CLSI based broth microdilution method; type: functional
Escherichia coli = test: Antibacterial activity against Escherichia coli ATCC 25922 assessed as bacterial growth inhibition incubated for 24 hrs by CLSI based broth microdilution method; type: functional
Acinetobacter baumannii [5] = test: Antibacterial activity against Acinetobacter baumannii ATCC 19606 assessed as bacterial growth inhibition incubated for 24 hrs by CLSI based broth microdilution method; type: functional
Staphylococcus aureus [6] = test: Antibacterial activity against methicillin-resistant Staphylococcus aureus 171 clinical isolate assessed as bacterial growth inhibition incubated for 24 hrs by CLSI based broth microdilution method; type: functional
Staphylococcus aureus [7] = test: Antibacterial activity against methicillin-resistant Staphylococcus aureus 575 clinical isolate assessed as bacterial growth inhibition incubated for 24 hrs by CLSI based broth microdilution method; type: functional
Enterococcus = test: Antibacterial activity against vancomycin-resistant Enterococcus 80 clinical isolate assessed as bacterial growth inhibition incubated for 24 hrs by CLSI based broth microdilution method; type: functional
Pseudomonas aeruginosa = test: Antibacterial activity against multidrug-resistant Pseudomonas aeruginosa 126 clinical isolate assessed as bacterial growth inhibition incubated for 24 hrs by CLSI based broth microdilution method; type: functional
Klebsiella pneumoniae = test: Antibacterial activity against multidrug-resistant Klebsiella pneumoniae 893 clinical isolate assessed as bacterial growth inhibition incubated for 24 hrs by CLSI based broth microdilution method; type: functional
Acinetobacter baumannii [8] = test: Antibacterial activity against carbapenem-resistant Acinetobacter baumannii 882 clinical isolate assessed as bacterial growth inhibition incubated for 24 hrs by CLSI based broth microdilution method; type: functional
[9] = tested on: Mesomycoplasma hyopneumoniae; test: Anti-mycoplasma activity against Mycoplasma hyopneumoniae J-NCYC10110 assessed as bacterial growth inhibition incubated for 7 days; type: functional; settings: J-NCYC10110, 168 h, time 7 day
[10] = tested on: Mesomycoplasma hyopneumoniae; test: Anti-mycoplasma activity against Mycoplasma hyopneumoniae LH-NCTC10130 assessed as bacterial growth inhibition incubated for 7 days; type: functional; settings: time 7 day
Mesomycoplasma hyorhinis = test: Anti-mycoplasma activity against Mycoplasma hyorhinis BTS-7-NCTC10130 assessed as bacterial growth inhibition incubated for 7 days; type: functional; settings: BTS-7-NCTC10130, 168 h, time 7 day
[11] = tested on: Mycoplasmoides gallisepticum; test: Anti-mycoplasma activity against Mycoplasma gallisepticum MG-R-NCTC10115 assessed as bacterial growth inhibition incubated for 7 days; type: functional; settings: MG-R-NCTC10115, 168 h, time 7 day
Mycoplasmopsis synoviae = test: Anti-mycoplasma activity against Mycoplasmopsis synoviae MS-MVU1852-NCTC10124 assessed as bacterial growth inhibition incubated for 7 days; type: functional; settings: MS-MVU1852-NCTC10124, 168 h, time 7 day
[12] = Cytotoxicity against human HepG2 cells incubated for 24 hrs by CCK8 assay; type: toxicity, cell-based
[13] = Cytotoxicity against HEK293 cells incubated for 24 hrs by CCK8 assay; type: toxicity, cell-based; settings: human
[14] = Cytotoxicity against human A549 cells incubated for 24 hrs by CCK8 assay; type: toxicity, cell-based
[15] = Toxicity in neutropenic Kunming mouse model infected with methicillin-resistant Staphylococcus aureus ATCC 33591 assessed as survival rate at 5 mg/kg, ip measured after 7 days relative to control; type: organism-based; settings: in vivo, 168 h, time 7 day
[16] = Toxicity in neutropenic Kunming mouse model infected with methicillin-resistant Staphylococcus aureus ATCC 33591 assessed as survival rate at 10 mg/kg, ip measured after 7 days relative to control; type: organism-based; settings: in vivo, 168 h, time 7 day
[17] = Toxicity in neutropenic Kunming mouse model infected with methicillin-resistant Staphylococcus aureus ATCC 33591 assessed as survival rate at 20 mg/kg, ip measured after 7 days relative to control; type: organism-based; settings: in vivo, 168 h, time 7 day
Staphylococcus aureus [18] = test: Antibacterial activity against methicillin-resistant Staphylococcus aureus ATCC 33591 infected in neutropenic Kunming mouse model administered intraperitoneally measured after 7 days; type: functional; settings: ATCC 33591, 168 h, route ip, time 7 day
Staphylococcus aureus [19] = test: Antibacterial activity against methicillin-resistant Staphylococcus aureus ATCC 33591 infected in neutropenic Kunming mouse model assessed as bacterial load reduction in lung at 10 to 20 mg/kg, ip measured after 2 days; type: functional, organism-based; settings: dose 10-20 mg/kg, time 2.0 day
Staphylococcus aureus [20] = test: Antibacterial activity against methicillin-resistant Staphylococcus aureus ATCC 33591 infected in neutropenic Kunming mouse model assessed as bacterial load reduction in kidney at 10 to 20 mg/kg, ip measured after 2 days; type: functional, organism-based; settings: dose 10-20 mg/kg, time 2.0 day
Staphylococcus aureus [21] = test: Antibacterial activity against methicillin-resistant Staphylococcus aureus ATCC 33591 infected in neutropenic Kunming mouse model assessed as bacterial load reduction in liver at 10 to 20 mg/kg, ip measured after 2 days; type: functional, organism-based; settings: dose 10-20 mg/kg, time 2.0 day
Staphylococcus aureus [22] = test: Antibacterial activity against methicillin-resistant Staphylococcus aureus ATCC 33591 infected in neutropenic Kunming mouse model assessed as reduction in infection-induced inflammatory cell inflammation in lung at 10 mg/kg, ip measured after 7 days; type: functional, organism-based; settings: time 7.0 day
Staphylococcus aureus [23] = test: Antibacterial activity against methicillin-resistant Staphylococcus aureus ATCC 33591 infected in neutropenic Kunming mouse model assessed as reduction in infection-induced inflammatory cell inflammation in kidney at 10 mg/kg, ip measured after 7 days; type: functional, organism-based; settings: time 7.0 day
Staphylococcus aureus [24] = test: Antibacterial activity against methicillin-resistant Staphylococcus aureus ATCC 33591 infected in neutropenic Kunming mouse model assessed as reduction in infection-induced inflammatory cell inflammation in liver at 10 mg/kg, ip measured after 7 days; type: functional, organism-based; settings: time 7.0 day
Staphylococcus aureus [25] = test: Bactericidal activity against methicillin-resistant Staphylococcus aureus ATCC 33591 at MIC incubated for 24 hrs by time kill assay relative to control; type: functional
Staphylococcus aureus [26] = test: Bactericidal activity against methicillin-resistant Staphylococcus aureus ATCC 33591 at 2 to 4 times MIC incubated for 24 hrs by time kill assay relative to control; type: functional

| SMILES | MIC [1] | MIC (Staphylococcus aureus [2]) | MIC (Staphylococcus aureus [3]) | MIC (Staphylococcus aureus [4]) | MIC (Escherichia coli) | MIC (Acinetobacter baumannii [5]) | MIC (Staphylococcus aureus [6]) | MIC (Staphylococcus aureus [7]) | MIC (Enterococcus) | MIC (Pseudomonas aeruginosa) | MIC (Klebsiella pneumoniae) | MIC (Acinetobacter baumannii [8]) | CC50 at 24 h [12] | CC50 at 24 h [13] | CC50 at 24 h [14] | also measured |
| --- | --- | --- | --- | --- | --- | --- | --- | --- | --- | --- | --- | --- | --- | --- | --- | --- |
| C=C[C@]1(C)C[C@@H](OC(=O)CSC(C)(C)CNC(=O)[C@H](N)C(C)C)[C@]2(C)[C@H](C)CC[C@]3(CCC(=O)[C@H]32)[C@@H](C)[C@@H]1O [VALNEMULIN] | 64 µg/mL (≈ 113 µM) | 4 µg/mL (≈ 7.08 µM) | 2 µg/mL (≈ 3.54 µM) | > 128 µg/mL | 2 µg/mL (≈ 3.54 µM) | 2 µg/mL (≈ 3.54 µM) | 128 µg/mL (≈ 227 µM) | 128 µg/mL (≈ 227 µM) | 128 µg/mL (≈ 227 µM) | 64 µg/mL (≈ 113 µM) | 128 µg/mL (≈ 227 µM) | 64 µg/mL (≈ 113 µM) | 37.3 µM | 31.1 µM | 46.2 µM | MIC [9]: 0.001 µg/mL (≈ 0.00177 µM); MIC [10]: 0.3 10^-4 ug/ml; MIC (Mesomycoplasma hyorhinis): 0.001 µg/mL (≈ 0.00177 µM); MIC [11]: 0.001 µg/mL (≈ 0.00177 µM); MIC (Mycoplasmopsis synoviae): 0.015 µg/mL (≈ 0.0266 µM); Survival [15]: 20%; Survival [16]: 40%; Survival [17]: 70%; ED50 (Staphylococcus aureus [18]): 14 mg/kg; Activity (Staphylococcus aureus [19]): Active; Activity (Staphylococcus aureus [20]): Active; Activity (Staphylococcus aureus [21]): Active; Activity (Staphylococcus aureus [22]): inactive; Activity (Staphylococcus aureus [23]): inactive; Activity (Staphylococcus aureus [24]): inactive |
| C=C[C@]1(C)C[C@@H](OC(=O)COC(=O)/C=C/c2cccc(C#N)c2)[C@]2(C)[C@H](C)CC[C@]3(CCC(=O)[C@H]32)[C@@H](C)[C@@H]1O | 2 µg/mL (≈ 3.75 µM) | 2 µg/mL (≈ 3.75 µM) | 8 µg/mL (≈ 15 µM) | 16 µg/mL (≈ 30 µM) | 64 µg/mL (≈ 120 µM) | 128 µg/mL (≈ 240 µM) | 32 µg/mL (≈ 60 µM) | 64 µg/mL (≈ 120 µM) | 16 µg/mL (≈ 30 µM) | 128 µg/mL (≈ 240 µM) | 128 µg/mL (≈ 240 µM) | > 128 µg/mL | 78.5 µM | 29.2 µM | > 200 µM |  |
| C=C[C@]1(C)C[C@@H](OC(=O)COC(=O)/C=C/c2cccnc2)[C@]2(C)[C@H](C)CC[C@]3(CCC(=O)[C@H]32)[C@@H](C)[C@@H]1O | 2 µg/mL (≈ 3.92 µM) | 2 µg/mL (≈ 3.92 µM) | 8 µg/mL (≈ 15.7 µM) | 16 µg/mL (≈ 31.4 µM) | 16 µg/mL (≈ 31.4 µM) | 32 µg/mL (≈ 62.8 µM) | 32 µg/mL (≈ 62.8 µM) | 64 µg/mL (≈ 126 µM) | 32 µg/mL (≈ 62.8 µM) | 16 µg/mL (≈ 31.4 µM) | 64 µg/mL (≈ 126 µM) | > 128 µg/mL | 80.6 µM | 28.6 µM | 63.4 µM |  |
| C=C[C@]1(C)C[C@@H](OC(=O)COC(=O)/C(C#N)=C/c2ccccc2)[C@]2(C)[C@H](C)CC[C@]3(CCC(=O)[C@H]32)[C@@H](C)[C@@H]1O | 8 µg/mL (≈ 15 µM) | 4 µg/mL (≈ 7.5 µM) | 8 µg/mL (≈ 15 µM) | 32 µg/mL (≈ 60 µM) | 8 µg/mL (≈ 15 µM) | 4 µg/mL (≈ 7.5 µM) | 64 µg/mL (≈ 120 µM) | > 128 µg/mL | 8 µg/mL (≈ 15 µM) | 64 µg/mL (≈ 120 µM) | 32 µg/mL (≈ 60 µM) | 8 µg/mL (≈ 15 µM) | > 200 µM | > 200 µM | > 200 µM |  |
| C=C[C@]1(C)C[C@@H](OC(=O)CSCCN(CC)CC)[C@]2(C)[C@H](C)CC[C@]3(CCC(=O)[C@H]32)[C@@H](C)[C@@H]1O [TIAMULIN] | 16 µg/mL (≈ 32.4 µM) | 64 µg/mL (≈ 130 µM) | > 128 µg/mL | 128 µg/mL (≈ 259 µM) | 64 µg/mL (≈ 130 µM) | 64 µg/mL (≈ 130 µM) |  |  |  |  |  |  |  |  |  | MIC [9]: 0.03 µg/mL (≈ 0.0608 µM); MIC ([10]; Mesomycoplasma hyopneumoniae, LH-NCTC10130, 168 h, read-out: MIC): 0.015 µg/mL (≈ 0.0304 µM); MIC (Mesomycoplasma hyorhinis): 0.03 µg/mL (≈ 0.0608 µM); MIC [11]: 0.125 µg/mL (≈ 0.253 µM); MIC (Mycoplasmopsis synoviae): 2 µg/mL (≈ 4.05 µM) |
| C=C[C@]1(C)C[C@@H](OC(=O)COC(=O)/C=C/c2ccc([N+](=O)[O-])cc2)[C@]2(C)[C@H](C)CC[C@]3(CCC(=O)[C@H]32)[C@@H](C)[C@@H]1O | 2 µg/mL (≈ 3.61 µM) | 8 µg/mL (≈ 14.4 µM) | 2 µg/mL (≈ 3.61 µM) | 4 µg/mL (≈ 7.22 µM) | 32 µg/mL (≈ 57.8 µM) | 64 µg/mL (≈ 116 µM) | 16 µg/mL (≈ 28.9 µM) | 16 µg/mL (≈ 28.9 µM) | 8 µg/mL (≈ 14.4 µM) | 64 µg/mL (≈ 116 µM) | 128 µg/mL (≈ 231 µM) | 128 µg/mL (≈ 231 µM) | > 200 µM | > 200 µM | > 200 µM |  |
| C=C[C@]1(C)C[C@@H](OC(=O)CS[C@@H]2C[C@H]3CC[C@@H](C2)N3C)[C@]2(C)[C@H](C)CC[C@]3(CCC(=O)[C@H]32)[C@@H](C)[C@@H]1O [RETAPAMULIN] | 32 µg/mL (≈ 61.8 µM) | 4 µg/mL (≈ 7.73 µM) | 4 µg/mL (≈ 7.73 µM) | 32 µg/mL (≈ 61.8 µM) | 16 µg/mL (≈ 30.9 µM) | 16 µg/mL (≈ 30.9 µM) | 128 µg/mL (≈ 247 µM) | 64 µg/mL (≈ 124 µM) | > 128 µg/mL | 128 µg/mL (≈ 247 µM) | 64 µg/mL (≈ 124 µM) | 64 µg/mL (≈ 124 µM) | 36.5 µM | 62.9 µM | 74.2 µM | Activity (Staphylococcus aureus [25]): 44.49%; Activity (Staphylococcus aureus [26]): 100% |
